Common to all, as to format: cell-based
One test relates to transformed tobacco. Put plainly: Regeneration of Agrobacterium-mediated transformed tobacco tissue under kanamycin selection. Particulars: in the presence of BAP; 100 mg/l kanamycin. Here is the method:
(§1) These IAA analogues were further evaluated for their abilities to effect the regeneration of plant tissues comprising foreign DNA. Tobacco and potato tissues were subjected to Agrobacterium-mediated transformation techniques, including cocultivation with Agrobacterium containing pBI121 and selecting with MS complete medium containing 0.5 mg/l BAP, 2 mg/l IAA derivative and 100 mg/l kanomycin.
(§2) Agrobacterium-mediated plant transformation was performed as described by Lin et al. (1994) Focus 16:72-77. For example:
In tobacco, the leaf discs were incubated with 10^9 cells/ml of Agrobacterium tumefaciens LBA4404 cells containing pBI121 in MS complete medium with 0.5 mg/l MES for 10 minutes, transferred to solid MS complete medium, and incubated for two days at 25° C., using an 18 hour light/6 hour dark cycle for cocultivation. After cocultivation, the explants were transferred to the MS medium containing a different ratio of BAP/IAA or BAP/IAA analogue, 100 mg/l kanamycin and 500 mg/l carbenicillin and incubated at 25° C. using an 18 hour light/6 hour dark cycle for shoot formation.

Another test concerns transformed potato. The experiment in a line: Regeneration of Agrobacterium-mediated transformed potato tissue under kanamycin selection. The note with it: in the presence of BAP; 100 mg/l kanamycin. Here is the method: as §1
Plant transformation in potato stems is carried out as described above in section (a) for tobacco.
as §2
In another example, potato leaf discs were transformed with the Agrobacterium-mediation technique as described above for tobacco. The potato explants were then subjected to incubation with IAA analogues in the absence and presence of cytokinin to screen for auxinic activities.

A further test deals with Cassava leaves and stems. The experiment in a line: Regeneration of shoots or calli from cassava leaves and stems with auxin in the presence of BAP. Particulars: 2 mg/l with 0.5 mg/l BAP, MS complete medium. On the procedure: Further, examples of IAA analogues of the invention were evaluated for auxinic activity in the presence of a cytokinin.
In another embodiment of the invention, IAA analogues of the present invention were applied to the regeneration of plant tissues known in the art to be difficult to regenerate, such as cassava, woody plants, and monocotyledonous crops [Vasil and Vasil (1994) in Plant Cell and Tissue Culture (Vasil and Thorpe, eds.), Kluwer Academic Publishers, Dordrech, Netherlands; Chee (1995) Plant Cell Reports 14:753-757; Bums and Schwartz (1996) Plant Cell Reports 15:405-408; Mihaljevic et al. (1996) Plant Cell Reports 15:610-614; Schopke et al. (1996) Nature Biotechnology 14:731].
Stems or third young leaves were removed from the one month old Cassava plants and cut into small pieces. The explants were incubated on MS complete medium containing different concentrations of auxin related compounds and 0.5 mg/l benzylaminopurine (BAP).
Young tobacco leaves, potato stems, tomato leaves and cassava leaves and stems from one-month-old plants were removed and cut into small pieces. […]

Each structure is given as a SMILES string. Entries after “also recorded” stand apart in the source; their conditions may differ.

Turning to `O=C(O)Cc1c[nH]c2ccc(F)cc12` [5-FIAA, 5-fluoroindole-3-acetic acid], the “regeneration of kanamycin resistant calli and shoots in transformed tobacco” value in the test with transformed tobacco is given as “stimulated”. Also, in the test with transformed potato, the “regeneration of kanamycin resistant calli in transformed potato” value was “stimulated”. The “shoot formation in cassava stems and leaves” value in the test with Cassava leaves and stems was “promoted the formation of shoots in cassava stems and to a greater extent from cassava leaves; also recorded: regeneration of shoots”.

(Values after patent US6815205B2, “Auxinic analogues of indole-3-acetic acid” (Invitrogen Corporation, priority 1995, dated 2004).)
